Reference: paper PMC8241142 (Drug Delivery, 2017)

Columns and labels:
[1] = In vitro release of DZP samples (USP II paddle method); type: physicochemical; conditions: deionized water, 37 °C, 50 rpm
Experimental: (§1) Dissolution studies of samples were carried out according to a USP II paddle method at 37 °C with a stirrer rotation speed of 50 rpm in a dissolution apparatus (ZRD6-B, Shanghai Huanghai Medicament Test Instrument Factory, Shanghai, China). […] At predetermined time intervals, 5 ml samples were taken out and replaced by fresh medium immediately. Then, samples were passed through a 0.22 μm membrane filter and were transferred to UV/Vis analysis at the wavelength of 240 nm.

[2] = In vitro release of NMS samples (USP II paddle method, PBS pH 7.8); type: physicochemical; conditions: PBS pH 7.8, 37 °C
Experimental: as §1
Samples containing 5 mg NMS were put into 250 ml phosphate buffer solutions (PBS, pH 7.8) at 37 °C.

[3] = tested on: mouse ear swelling caused by xylene; assay: Mouse ear swelling test (MEST); type: in vivo, Kunming mice; conditions: intragastric, 0.6 mg NMS, 50 min
Experimental: The mouse ear swelling test was developed to further evaluate the swelling inhibition potential of NMS/CMS. In detail, 16 male Kunming mice weighing 18–22 g were randomly divided into four groups (n = 4): NS group (negative control group), NMS group (positive control group), NMS/CMS group ([…]) and NMS/MCM41 group ([…]). Samples containing 0.6 mg NMS were suspended in normal saline and imposed to mice in all groups by intragastric administration. Mice in NS group were exposed to normal saline only. At 30 min after administration, 0.1 ml xylene was applied on each side of the left ear of mice, and the right ear regarded as a reference was left untreated. After 50 min, mice were executed, both ears were removed, and tissues with diameter of 0.6 cm were cut off by hole punch. The weight of the tissues cut from left and right ears was measured by electronic scale. The repression rate and the degree of ear swelling were, respectively, expressed as: (3) Repression rate (%)=(wL-wR)negative control-(wL-wR)test/(wL-wR)negative control-(wL-wR)positive control×100 (4) Swelling rate (%)=wL-wR/wR×100 where w L is the weight of tissue cut from the left ear and w R is the weight of tissue cut from the right ear of the same mice.

SMILES: CN1C(=O)CN=C(c2ccccc2)c2cc(Cl)ccc21 [DZP, Diazepam]
- cumulative release percentage within 24 h [1]: 66.75%

SMILES: CS(=O)(=O)Nc1ccc([N+](=O)[O-])cc1Oc1ccccc1 [NMS, Nimesulide]
- accumulative release percentage within 24 h [2]: 93.1%
- ear swelling rate [3]: 32.4%
